The results in this text go back to patent US9884862B2, “Pyridopyrimidinedione derivatives” (Novartis AG, priority 2014, dated 2018).

Assay [1] has as its system CFTR-Y122X. The experiment in a line: CFTR-Y122X assay (dual reporter isogenic Hek293 cell lines, Renilla luminescence readthrough). It is filed as cell-based. As to conditions: Homo sapiens, HEK293, 24 h, nonsense mutation suppression, 24 h incubation, tested up to 100 μM; for Emax: 100% = 14 mM paromomycin, read-out: Amax. From the text: Activity of compounds of the present invention was examined in recombinant, dual reporter isogenic Hek293 cell lines (“CFTR-Y122X assay”). The engineered reporter constructs contained the 18 bp sequence stretch corresponding to a common Y122X PTC mutation in CFTR class I mutant patients (see Sermet-Gaudelus, BMC Medicine, 2007, 5(5)). Instead of a tyrosine (Y) in position 122 of the CFTR protein a TGA stop codon interrupts the open reading frame (Y122X) of the corresponding mRNA. This TGA stop codon triplet (followed by the pyrimidine base cytosine) is permissive to aminoglycoside mediated translational readthrough which served as positive control for high throughput screening. A corresponding TAA stop codon variant and a wildtype non mutated construct was used for confirmation and counter screening. The CFTR sequence was sandwiched between an eGFP reporter, and a triple myc tag sequence fused to a full length Renilla reporter. All sequences, including an intron containing one positioned pre-eGFP (b-globin intron) were cloned in frame. The corresponding expression constructs were stably expressed in the isogenic HEK-R4 cell host (Invitrogen Incorp.) and selected by blasticidin resistance. The isogenic integration of the construct minimizes gene dose effects and improves assay reproducibility. Stably integrated single cell derived clones were selected and characterized for aminoglycoside mediated readthrough. […] Readthrough of Y122X accumulates an intracellular localized fusion protein approximately 65.5 kDa in size as controlled by western blot analysis and immunofluorescence using an anti-renilla antibody. The eGFP reporter pre-PTC mutation serves as visual control for genetic stability of the screening clones and minimizes protein degradation of small fusion protein amounts. In the assay, compound concentration was 10 μM. In miniaturized 1536 well format 2000 cells were dispensed in 4 μl/well and incubated for 24 h at 37° C., 5% CO2. 40 nl compounds were placed on the cells with control wells containing 1 ul Paramomycin and 14.4 mM final concentration. Compounds were incubated for 24 h. Renilla Glo substrate (2.5 ul) was added and plates were centrifuged and processed for luminescence measurement using various readers. Activity calculation was done using the equation: A1(%)=100*(S−NC)/(AC−NC) where AC, NC and S correspond to active controls (injection of Stimulation buffer=100% stimulation), neutral controls (buffer injection which Iloprost EC10) and screening samples (S). NC corresponds to 0% activity whereas AC is 100% activity (14 mM paromomycin). False positive artifacts were removed in confirmation and validation screening using the same assay format followed by counterscreening using the respective wildtype construct (w/o PTC mutation) cell model. Compounds were tested up to 100 μM compound concentration.

For assay [2], the system named is alpha-L-Iduronidase W402X in Hurler patient derived fibroblast cells. The experiment in a line: Hurler patient derived fibroblast cell cultures, restored alpha-L-iduronidase activity (W402X readthrough). Format: cell-based, human. The settings on record: Homo sapiens, Fibroblast, 192 h, 8 days incubation, highest concentration 20 uM; for Emax: 14 mM paromomycin = 100% control, read-out: Amax; for AC50: 8 point dilutions. The text has this: Activity of compounds of the present invention was examined in patient derived fibroblast cells. The genotyped cells were derived from the Coriell Institute (# GM00798) and contain an in frame homozygous TGG to TAG change at nucleotide 1293 of exon 9 which results in a W402X mutation. The W402X mutation is one of the most common Hurler syndromes causing loss of function mutation. Between 60-70% of genotyped patients contain either the Q70X and/or the W402X in mutation and are classified as severe MPSI patients. This TAG stop codon triplet is permissive to aminoglycoside mediated translational readthrough which served as activity control for compound testing. Readthrough of W402X restores alpha-L-Iduronidase activity which results in removal of lysosomal accumulated Glycosaminoglycan's. Iduronidase expression could neither be detected by Taqman PCR© nor by enzyme activity or ELISA methods without compound stimulation. Compounds were tested in concentration response mode. Therefore 5000 patient cells/40 ul/well in 384 well plates were used. Compound dilutions were derived from freshly prepared 10 mM compound stock solutions. Highest concentration was 20 uM and subsequently diluted 1: 3.16 (8 point dilutions, n=4). Final DMSO concentration was below 0.5% and tested to be without effect on cell viability, growth and readthrough. Cells were incubated for 8 days with one cell media and compound exchange at day 3. Thereafter cell media was removed and cells were lysed (0.4 M Sodiumformate, 0.1% NaN3, 0.9% NaCl, 0.2% Triton, pH 3.5). Restored alpha-L-iduronidase activity in cell lysates was measured with the fluorescent 4-MU iduronide substrate (5 ul of 0.4 mM 4 Methylumbelliferyl alpha-L-iduronide/well) after 48 h incubation. Paromomycin was used as reference control (14 mM=100% control).

Molecules are shown by their SMILES.

One may read the AC50 as the midpoint of the concentration-response curve, whichever way the signal moves. Regarding `Cc1csc2c(=O)c3c(=O)n(-c4ccccc4)c(C4CCC4)nc3n(C)c12` [Example 2.15, 2-cyclobutyl-8,9-dimethyl-3-phenylthieno[2′,3′:5,6]pyrido[2,3-d]pyrimidine-4,5(3H,9H)-dione], the Emax in assay [1] came out at 188%; in assay [2], 115%. Besides, the concentration at half-maximal activity (AC50) in assay [1] came out at 2.6 µM; in assay [2] it was 5.7 µM.

As to `Cc1scc2c(=O)c3c(=O)n(-c4ccccc4)c(C4CCC4)nc3n(C)c12` [Example 2.16, 2-cyclobutyl-8,9-dimethyl-3-phenylthieno[3′,4′:5,6]pyrido[2,3-d]pyrimidine-4,5(3H,9H)-dione], in assay [1], the Emax was determined as 199% and the activity was half-maximal at 4.6 µM (AC50). Besides, in assay [2], the Emax was determined as 150% and the AC50 was 12.3 µM.

For the molecule `Cn1c2cc(Cl)sc2c(=O)c2c(=O)n(-c3ccccc3)c(C3CCC3)nc21` [Example 2.17, 7-chloro-2-cyclobutyl-9-methyl-3-phenylthieno[2′,3′:5,6]pyrido[2,3-d]pyrimidine-4,5(3H,9H)-dione], the results for the Emax in assay [1] and in assay [2] were 151% and 128%, respectively. Also, the values for the AC50 in assay [1] and in assay [2] were 4 µM and 10 µM, respectively.

With `Cn1c2nc(C3CCC3)n(-c3ccccc3)c(=O)c2c(=O)c2cc(Cl)sc21` [Example 2.18, 7-chloro-2-cyclobutyl-9-methyl-3-phenylthieno[3′,2′:5,6]pyrido[2,3-d]pyrimidine-4,5(3H,9H)-dione], the values for the Emax in assay [1] and in assay [2] were 154% and 200%, respectively. Moreover, the AC50 in assay [1] was 3.3 µM; in assay [2], 11 µM.

Consider `CC(C)c1nc2c(c(=O)c3cc(Cl)sc3n2C)c(=O)n1-c1ccccc1` [Example 2.19], for which, in assay [1], the Emax stood at 104% and the activity was half-maximal at 15 µM (AC50). Moreover, in assay [2], the Emax amounted to 16%.

For `CC(C)c1nc2c(c(=O)c3sc(Cl)cc3n2C)c(=O)n1-c1ccccc1` [Example 2.20, 7-chloro-2-isopropyl-9-methyl-3-phenylthieno[2′,3′:5,6]pyrido[2,3-d]pyrimidine-4,5(3H,9H)-dione], in assay [1], the Emax came out at 70% and the AC50 stood at 19 µM. For the same molecule, the Emax in assay [2] turned out to be 7%.

Turning to `Cc1csc2c(=O)c3c(=O)n(-c4ccccc4)c(C(C)C)nc3[nH]c12` [Example 2.21, 2-isopropyl-8-methyl-3-phenylthieno[2′,3′:5,6]pyrido[2,3-d]pyrimidine-4,5(3H,9H)-dione], the values for the Emax in assay [1] and in assay [2] were 180% and 25%, respectively. For the same molecule, the activity in assay [1] was half-maximal at 14 µM (AC50).

Take `Cc1csc2c(=O)c3c(=O)n(-c4ccccc4)c(C(C)C)nc3n(C)c12` [Example 2.22, 2-isopropyl-8,9-dimethyl-3-phenylthieno[2′3′:5,6]pyrido[2,3-d]pyrimidine-4,5(3H,9H)-dione]: in assay [1], the Emax was 166% and the AC50 turned out to be 16 µM. Moreover, the Emax in assay [2] was 8%.

With `CC(C)c1nc2[nH]c3c(c(=O)c2c(=O)n1-c1ccccc1)CCCCC3` [Example 3.1, 2-isopropyl-3-phenyl-7,8,9,10-tetrahydro-3H-cyclohepta[5,6]pyrido[2,3-d]pyrimidine-4,5(6H,11H)-dione], in assay [1], the Emax is 190% and the AC50 was 13 µM. For the same molecule, in assay [2], the Emax was determined as 9% and the concentration at half-maximal activity (AC50) worked out at 1.4 µM.

As to `CC(C)c1nc2c(c(=O)c3c(n2C)CCCCC3)c(=O)n1-c1ccccc1` [Example 3.2, 2-isopropyl-11-methyl-3-phenyl-7,8,9,10-tetrahydro-3H-cyclohepta[5,6]pyrido[2,3-d]pyrimidine-4,5(6H,11H)-dione], in assay [1], the Emax stood at 213% and the AC50 is 11 µM. In assay [2], the Emax is 83% and the activity was half-maximal at 12 µM (AC50).

On to `CC(C)c1nc2[nH]c3c(c(=O)c2c(=O)n1-c1ccccc1)CCC3` [Example 3.3, 2-isopropyl-3-phenyl-7,8-dihydro-3H-cyclopenta[5,6]pyrido[2,3-d]pyrimidine-4,5(6H,9H)-dione], for which, in assay [1], the Emax amounted to 112% and the AC50 was 21 µM. Besides, the Emax in assay [2] was determined as 8%.
